{"source": "patent US12239729B2", "about": "“TRPV3 agonists for the treatment of skin conditions” (Soricimed Biopharma Inc., priority 2012, dated 2025)", "key": {"[1]": {"target": "T1, TRPV3 channels expressed in HEK-293 cells (Homo sapiens, UniProt Q8NET8)", "T1 construct": "expressed in transfected cells; host or cells: HEK-293 cells, transient transfection", "T1 sequence (Q8NET8 1-790)": "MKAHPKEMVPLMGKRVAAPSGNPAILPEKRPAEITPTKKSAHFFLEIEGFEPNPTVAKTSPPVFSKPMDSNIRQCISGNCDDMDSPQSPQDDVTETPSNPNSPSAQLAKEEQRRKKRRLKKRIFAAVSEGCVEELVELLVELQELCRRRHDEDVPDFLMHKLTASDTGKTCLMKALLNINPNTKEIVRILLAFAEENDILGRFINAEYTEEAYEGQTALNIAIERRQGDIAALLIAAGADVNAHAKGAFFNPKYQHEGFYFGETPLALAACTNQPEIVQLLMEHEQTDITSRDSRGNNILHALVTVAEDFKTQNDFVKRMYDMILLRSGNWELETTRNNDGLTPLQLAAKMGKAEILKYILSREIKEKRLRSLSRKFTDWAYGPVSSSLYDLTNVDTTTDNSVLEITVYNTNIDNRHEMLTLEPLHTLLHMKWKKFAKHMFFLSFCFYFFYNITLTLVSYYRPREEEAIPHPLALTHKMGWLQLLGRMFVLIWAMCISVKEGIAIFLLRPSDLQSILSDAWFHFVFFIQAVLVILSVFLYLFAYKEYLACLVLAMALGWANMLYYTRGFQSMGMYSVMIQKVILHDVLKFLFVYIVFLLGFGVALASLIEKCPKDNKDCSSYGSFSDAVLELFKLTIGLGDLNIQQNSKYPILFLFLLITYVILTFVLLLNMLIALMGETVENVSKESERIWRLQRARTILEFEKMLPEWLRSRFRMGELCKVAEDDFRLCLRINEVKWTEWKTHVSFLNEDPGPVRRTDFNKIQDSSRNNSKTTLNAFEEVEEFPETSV", "experiment": "Patch-clamp testing of TRPV3 channel activity in transfected HEK-293 cells", "format": "cell-based", "method": "SOR-C13, SOR-C27 and SOR-N54 were tested using a patch clamp screen to determine whether the peptide had any effect on the channel activity of TRPV3. Ruthenium red, a known antagonist of TRPV3 and 2-Aminoethoxydiphenyl Borate (2-APB) a known activator of TRPV3 were used as controls.\nHEK 293 cells were maintained in ϕ30 mm cell culture plate in DMEM media supplemented with 10% fetal bovine serum and penicillin/streptomycin. Cells were grown in a humidified atmosphere of 95% air/5% CO2 at 37° C. in a cell culture incubator.\nThe cells from 70-90% confluence were prepared for transfection. For transient expression in HEK-293 cells 1 μg plasmid cDNA and pEGFP (in vivo reporter of gene expression) were used.\nRecordings were performed at 20˜23° C. Currents were sampled using Digidata 1440A, amplified, and filtered at 2 kHz using Axopatch 200B, then acquired and analyzed using pClamp 10.0 (Molecular Devices, Sunny vales, CA, USA).\nThe pipette solution and bath solution contained 140 mM CsCl, 4 mM MgCl2, 10 mM EGTA, CsOH pH=7.3 and 130 mM NaCl, 5 mM KCl, 2 mM CaCl2), 1 mM MgCl2, 25 mM HEPES, 30 mM Glucose, pH=7.3, respectively.\nEach peptide was diluted in the bath solution to the desired concentration (0.01 μM, 0.03 μM, 0.1 μM, 0.3 μM, 1 μM, 3 μM, or 10 μM), respectively."}, "HaCaT cells [2]": {"test_system": "HaCaT cells", "experiment": "Cell death assay in HaCaT keratinocytes (Example 3)", "format": "cell-based, human", "method": "In an initial experiment, various concentrations of SOR-C13 and SOR-C27 were tested on human keratinocytes (HaCaT cells) for their ability to cause cell death. The negative control was Phosphate Buffered Saline (PBS) and the positive control was Glycolic Acid (20 mM), a known activator of TRPV3. At the concentrations used (10, 100 and 1000 μM) only the 1000 μM concentration produced a statistically significant increase in cell death over PBS (FIG. 6). […] The two peptides appeared to be indistinguishable in their activity with respect to the number of dead cells\nBoth peptides were dissolved in PBS at 30 mM concentration at ambient temperature based on the peptide content with a correction factor (SOR-C13 concentration was multiplied by 1.19, while SOR-C27 concentration was multiplied by 1.29). Stock solutions were sterilized by passing through a 0.2 μm syringe filter prewashed with PBS. Stocks of peptides were kept at −20° C. during the study.\nHuman immortalized keratinocyte HaCaT cells (Cat. #T0020001) were from Addexbio Technologies (San Diego, California, USA). In general, HaCaT cells were cultured in 37° C. CO2 incubator in DEME with 1.0 g/L glucose (Lonza, Cat #12-707F) with 10% FBS. Glutamine (2 mM), penicillin (100 I.U.) and streptomycin (100 μg/ml) were added to the media. Cells were sub-cultured twice per week using Trypsin-0.25% EDTA to detach cells.\nHaCaT cells were plated at ˜8×10^5/well in each well of the 12-well tissue culture plates in triplicates in 2 ml culture media. Twenty-four (24) hours post-plating, cells were treated with PBS, or SOR-C13 at 10, 100 and 1000 μM, or SOR-C27 at 10, 100 and 1000 μM, or glycolic acid at 20 mM.\nAt 72 hours post-treatment, the incubation was terminated and supernatant was collected. Attached cells were washed with 2 ml PBS, and trypsinized. Suspension of cells was combined with supernatant and spun at 1000 g for 5 minutes. The cell pellet was then resuspended in 100 μl PBS for cell counting using trypan blue exclusion.\nStudent's t-test was used to compare the group treated with a test article vs. the group treated with PBS. Standard errors of mean (SEM) were used to represent variation of data."}, "HaCaT cells [3]": {"test_system": "HaCaT cells", "experiment": "Wound healing assay in HaCaT cells with SOR-C13 fragments (Example 5)", "format": "cell-based, human", "settings": "24 hours", "method": "HaCaT cells were plated at 1.6×10^5 per well in 24-well tissue culture plates in 1 ml of DMEM low glucose medium with 10% FBS. After 3 days, when the cells in each well were ˜100% confluent, a gap at the bottom of each well was generated by scratching with a sterile pipette tip. Supernatant was aspirated and cells were washed gently once with PBS. Fresh media (MEGM Bullet Kit, (Lonza, Cat. #CC-3150) containing bovine pituitary extracts (BPE), hEGF, insulin, and hydrocortisone was added after the wash with peptides. After 24 hours, cells were fixed with 2% paraformaldehyde with 15-minute incubation. Fixed cells were rinsed with PBS. Cells in each well were then examined under the microscope to semi-quantify the gap closure by cell migration. A digital camera fixed to the microscope was used to capture images of cells. The width of gap was measured by a ruler semi-quantitatively on the image. Under visual inspection, the wound healing results were also scored as “−”; “+”; “++”; or “+++” using the same criteria as set out in Example 4.\nThe effect of the peptides on tissue repair was determined using a wound healing assay that measures the migration of HaCaT cells. Gap size prior to and after treatment was semi-quantified by measuring the size of each gap on a digital photograph of the cells."}}, "note": "Entries after “also recorded” stand apart in the source; their conditions may differ. Peptide text beside a SMILES is read from it."}
{"smiles": "CC(C)C[C@H](NC(=O)[C@H](Cc1ccccc1)NC(=O)[C@H](CCC(=O)O)NC(=O)[C@@H](N)CCCCN)C(=O)N[C@@H](Cc1cnc[nH]1)C(=O)N1CCC[C@H]1C(=O)N[C@@H](CO)C(=O)N[C@@H](CCCCN)C(=O)N[C@H](C(=O)N[C@@H](CC(=O)O)C(=O)N[C@@H](CC(C)C)C(=O)N1CCC[C@H]1C(=O)N[C@@H](CCCNC(=N)N)C(=O)O)C(C)C", "note": "[SOR-C13, KEFLHPSKVDLPR] (H-KEFLHPSKVDLPR-OH)", "values": [{"measurement": "EC50", "setting": "[1]", "value": 21.7, "unit": "nM"}, {"measurement": "increase in cell death compared to PBS treatment", "setting": "HaCaT cells [2]; 1 mM, 72-hour incubation", "value": "~2", "unit": "fold"}, {"measurement": "induction of cell death compared to PBS", "setting": "HaCaT cells [2]; 1 mM, 72 hours, p<0.05", "value": "significantly induced cell death"}, {"measurement": "number of dead cells", "setting": "HaCaT cells [2]; 1 mM, 72 hours, trypan blue exclusion", "value": "~2.2×10^4 /well"}, {"measurement": "induction of cell death compared to PBS", "setting": "HaCaT cells [2]; 10 or 100 μM, 72 hours", "value": "no significant difference in the numbers of dead cells; also recorded: did not have a significant effect"}, {"measurement": "wound healing response, gap closure", "setting": "HaCaT cells [3]; 1000 μM", "value": "no response"}, {"measurement": "concentration dependence of wound healing response / gap closure", "setting": "HaCaT cells [3]; 10, 100 and 1000 μM", "value": "lower concentrations of SOR-C13 are more effective than higher concentrations; also recorded: lower concentrations are more effect than higher concentrations"}, {"measurement": "wound healing response, gap closure", "setting": "HaCaT cells [3]; two lowest concentrations (10 and 100 μM)", "value": "very good response"}]}
